Measurements: BindingDB's records for patent US12202839 (University of Virginia Patent Foundation, 2025)

Target: Protein tyrosine phosphatase type IVA 3 (Homo sapiens, UniProt O75365)
Assay: PTP4A3 Enzymatic Assay

Chain of Protein tyrosine phosphatase type IVA 3 (O75365 whole entry): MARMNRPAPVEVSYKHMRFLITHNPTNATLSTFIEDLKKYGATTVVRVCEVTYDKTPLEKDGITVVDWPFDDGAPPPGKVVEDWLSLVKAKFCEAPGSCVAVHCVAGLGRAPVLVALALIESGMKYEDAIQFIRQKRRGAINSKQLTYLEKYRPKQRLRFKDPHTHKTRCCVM

## O=C1NC(=O)c2sc(-c3ccccc3)cc2C1=O [US12202839, Compound 15]
  IC50: 162 nM
